In patent US9532994B2, “Agents and methods for enhancing bone formation by oxysterols in combination with bone morphogenic proteins” (THE REGENTS OF THE UNIVERSITY OF CALIFORNIA, priority 2003, dated 2017):

Assays:
Format in all cases: cell-based, mouse
adipocyte P2 gene (aP2) = experiment: Northern blotting for adipocyte P2 gene in M2 cells; conditions: 10 μM Tro with 10 μM 20S, 10 days (FIGS. 7C and D)
Method: RNA isolation and Northern blot analysis - Following treatment of cells under appropriate experimental conditions, total RNA was isolated using the RNA isolation kit from Stratagene (La Jolla, Calif., U.S.A.). Total RNA ([…]) was run on a 1% agarose/formaldehyde gel and transferred to Duralon-UV membranes (Strategene, CA, U.S.A.) and cross-linked with UV light. The membranes were hybridized overnight at 60° C. with ^32P-labeled mouse osteocalcin cDNA probe, mouse lipoprotein lipase (LPL), mouse adipocyte protein 2 (aP2) PCR-generated probes, human 28S or 18S rRNA probes obtained from Geneka Biotechnology (Montreal, Quebec, Canada) and Maxim Biotech (San Francisco, CA, U.S.A.), respectively. […] The extent of gene induction was determined by densitometry.
Test 2: (A) M2 cells at confluence were treated in RPMI containing 10% FBS with control vehicle or 10 μM troglitazone (Tro) in the absence or presence of 10 μM 20S or 22S oxysterols. After 10 days, adipocytes were visualized by oil Red O staining and quantified by light microscopy, shown in (B). […] After 10 days, total RNA was isolated and analyzed for lipoprotein lipase (LPL), adipocyte P2 gene (aP2) or 18S rRNA expression by Northern blotting as described (Ref). […]

ERK1 = experiment: Western blot for pERK or ERK in M2 cells; conditions: 5 μM 20S for 1, 4, or 8 hours (FIG. 10A)
Method: (§1) Western blot analysis—After treatments, cells were lysed in lysis buffer, protein concentrations determined using the Bio-Rad protein assay (Hercules, Calif. U.S.A.), and SDS-PAGE performed as previously described. Probing for native and phosphorylated ERKs was performed as previously reported.
(§2) (A) M2 cells at confluence were pretreated for four hours with RPMI containing 1% FBS, followed by treatment with control vehicle or 5 μM 20S oxysterol for 1, 4, or 8 hours. Next total cell extracts were prepared and analyzed for levels of native or phosphorylated ERK (pERK) using specific antibodies as previously described. Data from a representative of four experiments are shown, each treatment shown in duplicate samples. (B) M2 cells at confluence were pretreated for 2 hours with control vehicle (C) or 20 μM PD98059 (PD) in osteogenic medium as previously described. Next, a combination of 22R and 20S oxysterols (RS, 5 μM each) were added to appropriate wells as indicated. After 10 days of incubation, matrix mineralization was quantified by the ^45Ca incorporation assay as previously described. Data from a representative of three experiments are reported as the mean±SD of quadruplicate determinations, normalized to protein concentration (p<0.01 for RS vs. RS+PD). […] After 10 days, adipocytes were visualized by oil Red O staining and quantified by light microscopy as previously described. […]

ERK2 = experiment: Western blot for pERK or ERK in M2 cells; conditions: 5 μM 20S for 1, 4, or 8 hours (FIG. 10A)
Method: as §1, §2

CC(C)CCC[C@](C)(O)[C@H]1CC[C@H]2[C@@H]3CC=C4C[C@@H](O)CC[C@]4(C)[C@H]3CC[C@@]21C [20S, 20(S)-hydroxycholesterol]
expression of adipocyte P2 gene (aP2) (adipocyte P2 gene (aP2)): inhibition of the expression
activation of ERK1 (ERK1): sustained activation
activation of ERK2 (ERK2): sustained activation
